For the test, the system named is female mice (C57/BL6) with streptozocin-induced hyperglycemia. In words: AAV1.CMV.insulin.RSV.icasp9 and AP20187 in streptozocin-treated C57/BL6 mice, blood glucose. It is filed as in vivo. The note with it: IP 10 mg/kg, five consecutive days starting on day 14 after AAV1.CMV.insulin.RSV.icasp9 (FIG. 6). How it is done: FIG. 6 is a graph plotting glucose levels for three groups of mice. One group was treated intraperitoneally (IP) with streptozocin (STZ) for two weeks to develop hyperglycemia. A second group was treated intraperitoneally (IP) with streptozocin (STZ) for two weeks to develop hyperglycemia and then administered AAV1.CMV.insulin.RSV.icasp9 (AAV1) intramuscularly (IM) on day zero. The third group was treated intraperitoneally (IP) with streptozocin (STZ) for two weeks to develop hyperglycemia, was then administered AAV1.CMV.insulin.RSV.icasp9 (AAV1) intramuscularly (IM) on day zero followed by intraperitoneal (IP) administration of AP20187 (B/B) on days 14, 15, 16, 17, and 18.
To induce diabetes in mice, three groups of female mice (C57/BL6) were given, on 5 consecutive days, an intraperitoneal (IP) injection of Streptozocin (STZ; Sigma cat #50130) at 45 mg/kg body weight dissolved in 0.1 mol/L citrate buffer (pH 4.5) immediately before administration. Two weeks later, when hyperglycemia developed, two groups of mice were injected intramuscularly (IM) with 1×10E11 particles/mice of AAV1.CMV.insulin.RSV.icasp9. Blood glucose levels were determined using a Contour blood glucose test strips (Bayer HealthCare LLC). 14 days later, one group of mice was injected via IP injection with 10 mg/kg of AP20187 (B/B homodimerizer; Clontech, Cat. No. AP20187) for 5 consecutive days.

Each structure is given as a SMILES string.

As to `CC[C@H](C(=O)N1CCCCC1C(=O)O[C@H](CCc1ccc(OC)c(OC)c1)c1cccc(OCC(=O)NCC(CNC(=O)COc2cccc([C@@H](CCc3ccc(OC)c(OC)c3)OC(=O)[C@@H]3CCCCN3C(=O)[C@@H](CC)c3cc(OC)c(OC)c(OC)c3)c2)CN(C)C)c1)c1cc(OC)c(OC)c(OC)c1` (stereo partly shown) [AP20187], the “glucose levels after induction of the iCasp9 death switch” value is listed as “steady increase in glucose levels”.

These data come from US10947291B2, “Treating type I and type II diabetes” (Mayo Foundation for Medical Education and Research, priority 2013, dated 2021).
